Experimental data reported in patent US20260272924A1, “ISOINDOLINE DERIVATIVE, BENZOINDOLE DERIVATIVE AND USE THEREOF” (SHANGHAI HELIOSON PHARMACEUTICAL CO., LTD., priority 2023, published 2026).
pIC50: −log10 of the molar value.

Test system: NCI-H929 multiple myeloma cells
Assay: Cell Titer-GLO (CTG) assay for proliferation of NCI-H929 cells
Assay type: cell-based
Settings: Homo sapiens, 72 hours
Description: 1. Experimental objective: To determine inhibitory activities of compounds on NCI-H929 multiple myeloma cells.
NCI-H929 cells, purchased from Nanjing Cobioer Biotechnology Co., Ltd, were cultured in RPM11640 (Viva; C3010-0500) medium containing 10% fetal bovine serum (Viva, C04002-500) and 1% of penicillin-streptomycin at 37° C. with 5% of C02 and saturated humidity conditions.
The cells in logarithmic growth phase were plated at 5000 cells per well of a 96-well plate and after overnight incubation, compounds at 0.00512 nM, 0.0256 nM, 0.128 nM, 0.64 nM, 3.2 nM, 16 nM, 80 nM, and 400 nM were dosed into the plate with each dose in 2 duplicate wells. Cells were incubated at 37° C., 5% CO2 for 72 hours. After the incubation, the plate was placed at room temperature for half an hour, and then 50 μL of Cell Titer-Glo® (Promega, G7573) was added. The plate was placed on a shaker for uniform mixing for 2 minutes and was placed in the dark at room temperature for 10 minutes. The luminance signal was measured using SpectraMax Paradigm (Molecular Devices).
Cell activity inhibition rate (%)=1 00−(RLUcompound−RLUblank)/(RLUcontrol−RLUblank)×100%, where control refers to the 0.1% DMSO treatment group, and blank refers to the culture medium control. IC50 values and maximum inhibition rates of the compounds were calculated using a nonlinear regression function “Dose-Response-Inhibition” in Graphpad Prism 7.0.

Row | SMILES | pIC50
1 | O=C1CCC(N2C(=O)c3cccc4c(Cc5ccc(CN6CCN(c7ccnc(-n8cnc(C(F)(F)F)n8)n7)CC6)cc5)ccc2c34)C(=O)N1 (stereo not drawn) [Example 39, 3-(2-oxo-6-(4-((4-(2-(3-(trifluoromethyl)-1H-1,2,4-triazol-1-yl)pyrimidin-4-yl)piperazin-1-yl)methyl)benzyl)benzo[cd]indol-1(2H)-yl)piperidin-2,6-dione] | 11.00
2 | Cc1nc(N2CCN(C3CN(Cc4ccc(COc5cccc6c5CN([C@H]5CCC(=O)NC5=O)C6=O)cc4)C3)CC2)cc(-n2cnc(C)n2)n1 [Example 77, (S)-3-(4-((4-((3-(4-(2-methyl-6-(3-methyl-1H-1,2,4-triazol-1-yl)pyrimidin-4-yl)piperazin-1-yl)azetidin-1-yl)methyl)benzyl)oxy)-1-oxoisoindolin-2-yl)piperidin-2,6-dione] | 10.00
3 | O=C1CCC(N2C(=O)c3cccc4c(Cc5ccc(CN6CC(CN7CCN(c8cccc(-n9ccnc9)n8)CC7)C6)cc5)ccc2c34)C(=O)N1 (stereo not drawn) [Example 55, 3-(6-(4-((3-((4-(6-(1H-imidazol-1-yl)pyridin-2-yl)piperazin-1-yl)methyl)azetidin-1-yl)methyl)benzyl)-2-oxobenzo[cd]indol-1(2H)-yl)piperidin-2,6-dione] | 9.70
4 | O=C1CCC(N2C(=O)c3cccc4c(Cc5ccc(CN6CCC(Nc7ccnc(-n8ccnc8)n7)CC6)cc5)ccc2c34)C(=O)N1 (stereo not drawn) [Example 9, 3-(6-(4-((4-((2-(1H-imidazol-1-yl)pyrimidin-4-yl)amino)piperidin-1-yl)methyl)benzyl)-2-oxobenzo[cd]indol-1(2H)-yl)piperidin-2,6-dione] | 10.15
5 | O=C1CCC(N2C(=O)c3cccc4c(Cc5ccc(CN6CCN(c7ccnc(-n8cnc(C9CC9)c8)n7)CC6)cc5)ccc2c34)C(=O)N1 (stereo not drawn) [Example 26, 3-(6-(4-((4-(2-(4-cyclopropvl-1H-imidazol-1-yl)pyrimidin-4-yl)piperazin-1-yl)methyl)benzyl)-2-oxobenzo[cd]indol-1(2H)-yl)piperidin-2,6-dione] | 10.22
6 | Cc1ncn(-c2ncc(Cl)c(N3CCN(Cc4ccc(Cc5ccc6c7c(cccc57)C(=O)N6C5CCC(=O)NC5=O)cc4)CC3)n2)n1 (stereo not drawn) [Example 45, 3-(6-(4-((4-(5-chloro-2-(3-methyl-1H-1,2,4-triazol-1-yl)pyrimidin-4-yl)piperazin-1-yl)methyl)benzyl)-2-oxobenzo[cd]indol-1(2H)-yl)piperidin-2,6-dione] | 11.00
7 | Cc1nc(N2CCN(Cc3ccc(COc4cccc5c4CN([C@H]4CCC(=O)NC4=O)C5=O)cc3)CC2)cc(-n2cnc(C(F)(F)F)c2)n1 [Example 72, (S)-3-(4-((4-((4-(2-methyl-6-(4-(trifluoromethyl)-1H-imidazol-1-yl)pyrimidin-4-yl)piperazin-1-yl)methyl)benzyl)oxy)-1-oxoisoindolin-2-yl)piperidin-2,6-dione] | 10.00
8 | NC(=O)c1cn(-c2cccc(N3CCN(Cc4ccc(COc5cccc6c5CN([C@H]5CCC(=O)NC5=O)C6=O)cc4)CC3)n2)cn1 [Example 57, (S)-1-(6-(4-(4-(((2-(2,6-dioxopiperidin-3-yl)-1-oxoisoindolin-4-yl)oxy)methyl)benzyl)piperazin-1-yl)pyridin-2-yl)-1H-imidazol-4-carboxamide] | 10.00
9 | O=C1CCC(N2C(=O)c3cccc4c(Cc5ccc(CN6CCN(c7cc(C(F)(F)F)nc(-n8cnc(Cl)c8)n7)CC6)cc5)ccc2c34)C(=O)N1 (stereo not drawn) [Example 74, 3-(6-(4-((4-(2-(4-chloro-1H-imidazol-1-yl)-6-(trifluoromethyl)pyrimidin-4-yl)piperazin-1-yl)methyl)benzyl)-2-oxobenzo[cd]indol-1(2H)-yl)piperidin-2,6-dione] | 10.00
10 | Cc1nc(N2CCN(Cc3ccc(Cc4ccc5c6c(cccc46)C(=O)N5C4CCC(=O)NC4=O)cc3)CC2)cc(-n2cc(C(F)(F)F)nn2)n1 (stereo not drawn) [Example 73, 3-(6-(4-((4-(2-methyl-6-(4-(trifluoromethyl)-1H-1,2,3-triazol-1-yl)pyrimidin-4-yl)piperazin-1-yl)methyl)benzyl)-2-oxobenzo[cd]indol-1(2H)-yl)piperidin-2,6-dione] | 10.52
11 | Cc1cc(C(=O)NC2CCN(Cc3ccc(Cc4ccc5c6c(cccc46)C(=O)N5C4CCC(=O)NC4=O)cc3)CC2)nc(-n2ccnc2)n1 (stereo not drawn) [Example 12, N-(1-(4-((1-(2,6-dioxopiperidin-3-yl)-2-oxo-1,2-dihydrobenzo[cd]indol-6-yl)methyl)benzyl)piperidin-4-yl)-2-(1H-imidazol-1-yl)-6-methylpyrimidin-4-carboxamide] | 10.15
12 | O=C1CCC(N2C(=O)c3cccc4c(Cc5ccc(CN6CCC(NC(=O)c7ccnc(-n8ccnc8)n7)CC6)cc5)ccc2c34)C(=O)N1 (stereo not drawn) [Example 7, N-(1-(4-((1-(2,6-dioxopiperidin-3-yl)-2-oxo-1,2-dihydrobenzo[cd]indol-6-yl)methyl)benzyl)piperidin-4-yl)-2-(1H-imidazol-1-yl)pyrimidin-4-carboxamide] | 10.30
13 | O=C1CC[C@H](N2Cc3c(OCc4ccc(CN5CCN(c6ccnc(-c7cncs7)n6)CC5)cc4)cccc3C2=O)C(=O)N1 [Example 80, (S)-3-(1-oxo-4-((4-((4-(2-(thiazol-5-vi)pyrimidin-4-yl)piperazin-1-yl)methyl)benzyl)oxy)isoindolin-2-yl)piperidin-2,6-dione] | 9.40
14 | Cc1ncn(-c2cccc(N3CCN(Cc4ccc(Cc5ccc6c7c(cccc57)C(=O)N6[C@@H]5CCC(=O)NC5=O)cc4)CC3)n2)n1 [Example 38, (R)-3-(6-(4-((4-(6-(3-methyl-1H-1,2,4-triazol-1-yl)pyridin-2-yl)piperazin-1-yl)methyl)benzyl)-2-oxobenzo[cd]indol-1(2H)-yl)piperidin-2,6-dione] | 10.52
15 | O=C1CCC(N2C(=O)c3cccc4c(Cc5ccc(CN6CCC(O[C@H]7CC[C@@H](NC(=O)c8cccc(-n9ccnc9)n8)CC7)CC6)cc5)ccc2c34)C(=O)N1 (stereo partly drawn) [Example 27, N-((1s,4s)-4-((1-(4-((1-(2,6-dioxopiperidin-3-yl)-2-oxo-1,2-dihydrobenzo[cd]indol-6-yl)methyl)benzyl)piperidin-4-yl)oxy)cyclohexyl)-6-(1H-imidazol-1-yl)pyridin-2-carboxamide] | 10.00
16 | O=C1CCC(N2C(=O)c3cccc4c(Cc5ccc(CN6CCN(c7ccnc(-n8cnc(Cl)c8)n7)CC6)cc5)ccc2c34)C(=O)N1 (stereo not drawn) [Example 43, 3-(6-(4-((4-(2-(4-chloro-1H-imidazol-1-yl)pyrimidin-4-yl)piperazin-1-yl)methyl)benzyl)-2-oxobenzo[cd]indol-1(2H)-yl)piperidin-2,6-dione] | 10.70
17 | Cc1nc(N2CCN(Cc3ccc(Cc4ccc5c6c(cccc46)C(=O)N5C4CCC(=O)NC4=O)cc3)CC2)cc(-n2cnc(C#N)c2)n1 (stereo not drawn) [Example 51, 3-(6-(4-((4-(6-(-4-cyano-1H-imidazol-1-yl)-2-methylpyrimidin-4-yl)piperazin-1-yl)methyl)benzyl)-2-oxobenzo[cd]indol-1(2H)-yl)piperidin-2,6-dione] | 11.00
18 | O=C1CC[C@H](N2Cc3c(OCc4ccc(CN5CCN([C@H]6CC[C@H](NC(=O)c7cccc(-n8ccnc8)n7)CC6)CC5)cc4)cccc3C2=O)C(=O)N1 [Example 16, N-((1R,4R)-4-(4-(4-(((2-((S)-2,6-dioxopiperidin-3-yl)-1-oxoisoindolin-4-yl)oxy)methyl)benzyl)piperazin-1-yl)cyclohexyl)-6-(1H-imidazol-1-yl)pyridin-2-carboxamide] | 10.30
